These results are taken from patent US20250026725A1, “HYDRATE CRYSTAL OF 5-CHLORO-4-(3-CHLORO-4- METHYLPHENYL)-1H-IMIDAZOLE-2-CARBONITRILE” (ISHIHARA SANGYO KAISHA, LTD., priority 2021, published 2025).

Data set [1] concerns Microsporum canis (IFM63627). As to the kind of experiment: Antifungal activity test, minimum fungicidal concentration (MFC100) on spores by treatment time. It counts as cell-based. The following applies: read-out: Minimal fungicidal concentration (MFC100). Here is the method: Microsporum canis was cultured on a 1/10 Sabouraud medium at 32° C. for 168 hours to form spores. Then, 10 mL of physiological saline solution (OTSUKA NORMAL SALINE; containing the equivalent of 9 g of sodium chloride in 1000 mL) was directly added over the medium, and the surface was scraped with a disposable loop (Type 1 (1 μL) to collect a spore suspension containing mycelia. The spore suspension containing mycelia was filtered through a cell strainer ((40 μm). Spores were collected from a filtrate by centrifugation (3500 rpm, 5 minutes), and washed twice with physiological saline to prepare a spore suspension (1×10^7 cells/mL). 10 μL of the spore suspension was inoculated into 90 μL of physiological saline solution to which the compound under test dissolved in DMSO was added so as to have a predetermined concentration. Every time a predetermined time lapsed, 10 μL of a test solution containing spores was taken out. Spores were collected from the test solution thus taken out by centrifugation (3500 rpm, 5 minutes), and washed twice with physiological saline to prepare 10 μL of spore suspension. […]
A minimum fungicidal concentration (MFC100) for Microsporum canis (IMF63627) was determined in the same method as in Test Example 8 except that the hydrate crystal (Production Example 2) was used as the compound under test.

The test system of data set [2] is Malassezia furfur (IFM 55951). Kind of data set: Antifungal activity test, minimum fungicidal concentration (MFC100). It counts as cell-based. The following applies: 1 minute contact, culture 32° C. for 72 hours, read-out: Minimal fungicidal concentration (MFC100). As to the method: (§1) Fungi of Malassezia (Malassezia furfur, Malassezia sympodialis, and Malassezia globosa) that had been cultured on a CHROMagar (trademark) Malassezia/Candida raw medium (peptone, specialized enzyme-substrate mixture, chloramphenicol, olive oil, agar, manufactured by KANTO CHEMICAL CO., INC.) for 5 to 7 days was suspended in physiological saline to prepare so as to have an absorbance of 0.025 at 600 nm. The compound under test dissolved in DMSO was added thereto so as to have final concentrations of 200, 100, 50, and 25 ppm. 1 minute later, 10 μL of suspension and 10 mL of physiological saline were added to a syringe and stirred, and then the mixture was filtered by connecting to a 37 mm quality monitor (manufactured by Pall Corporation) and washed twice with 10 ml of physiological saline. The membrane filters were removed from the quality monitor, and placed and cultured on the CHROMagar (trademark) Malassezia/Candida raw medium at 32° C. for 72 hours, and the presence or absence of the development of colonies was examined to determine a minimum fungicidal concentration (MFC100). Minimum fungicidal concentrations (MFC100) for Malassezia furfur (IFM 55951), Malassezia sympodialis (IFM 48588), and Malassezia globosa (IFM 51946) were determined in the same method as in Test Example 10 except that the hydrate crystal (Production Example 2) was used as the compound under test.

Data set [3] relates to Malassezia globosa (IFM 51946). The description is as above. It counts as cell-based. The following applies: 1 minute contact, culture 32° C. for 72 hours, read-out: Minimal fungicidal concentration (MFC100). Here is the method: as §1
In data set [4] the test system is Malassezia sympodialis (IFM 48588). Described as above. The settings on record: 1 minute contact, culture 32° C. for 72 hours, read-out: Minimal fungicidal concentration (MFC100). It counts as cell-based. As to the method: as §1
For data set [5], the system named is Malassezia restricta (IFM55992). The data set is described as above. It counts as cell-based. The settings on record: 1 minute contact, MLNA medium 32° C. for 72 hours, read-out: Minimal fungicidal concentration (MFC100). Here is the method:
A fungus of Malassezia (Malassezia restricta) that had been cultured on a CHROMagar (trademark) Malassezia/Candida raw medium (peptone, specialized enzyme-substrate mixture, chloramphenicol, olive oil, agar, manufactured by KANTO CHEMICAL CO., INC.) for 5 to 7 days was suspended in physiological saline to prepare so as to have an absorbance of 0.025 at 600 nm. The compound under test dissolved in DMSO was added thereto so as to have final concentrations of 200, 100, 50, and 25 ppm. 1 minute later, 10 μL of suspension and 10 mL of physiological saline were added to a syringe and stirred, and then the mixture was filtered by connecting to a 37 mm quality monitor (manufactured by Pall Corporation) and washed twice with 10 ml of physiological saline. The membrane filters were removed from the quality monitor, and placed and cultured on a Leeming & Notman agar Modified medium (MLNA medium) (peptone, glucose, yeast extract, dried bovine bile, glycerol, glycerin stearate, Tween 60, olive oil, agar) at 32° C. for 72 hours, and the presence or absence of the development of colonies was examined to determine a minimum fungicidal concentration MFC100). A minimum fungicidal concentration (MFC100) for Malassezia restricta (IFM55992) was determined in the same method as in Test Example 11 except that the hydrate crystal (Production Example 2) was used as the compound under test.

A short description of data set [6]: Karl Fischer moisture content measurement (volumetric titration method). It counts as physicochemical. The following applies: atmosphere of 25° C., as obtained. Here is the method: The moisture content rates of the hydrate crystals obtained in Production Examples 1 and 2, and the anhydrous crystals used as a raw material in Production Example 1 were measured with a Karl Fischer moisture meter (CA-310, manufactured by Nittoseiko Analytech Co., Ltd.). The test was conducted in conformance with the description in The Japanese Pharmacopoeia, 18th Edition, “2.48 Water Determination (Karl Fischer Method)”, Volumetric titration. The measurement was performed in an atmosphere of 25° C., with the conditions set to a forced delay time of 2 minutes after sample administration, a minimum amount to be titrated of 2 μL, and an end point voltage of 140 mV. More specifically, it was as follows. First, into a measuring flask, methanol for moisture measurement (Aquamicron Dehydrated Solvent GEX, manufactured by Mitsubishi Chemical Corporation) was loaded, and 30 mg of water was added thereto to titrate the mixture with a Karl Fischer reagent (Aquamicron SS-Z, manufactured by Mitsubishi Chemical Corporation). After titration, a titer (mg/mL) of the reagent was determined from the amount titrated. Next, about 0.1 g of a measurement sample was precisely weighed and added into the measuring flask to titrate the mixture with a Karl Fischer reagent. The moisture content (w/w %) in the sample was calculated from the amount titrated and the previously determined titer.

Values after ≈ are worked out from the molar mass of the structure shown. Read-outs that look alike come from different tables or passages of the source.

`Cc1ccc(-c2nc(C#N)[nH]c2Cl)cc1Cl` [Anhydrous crystal, 5-chloro-4-(3-chloro-4-methylphenyl)-1H-imidazole-2-carbonitrile]: the MFC was 50 mg/L (≈ 198 µM) in data set [1] (treatment time 24 hours); 10 mg/L (≈ 39.7 µM) in data set [1] (treatment time 96 hours); 50 mg/L (≈ 198 µM) in data set [2]; 50 mg/L (≈ 198 µM) in data set [3]; 50 mg/L (≈ 198 µM) in data set [4]; 200 mg/L (≈ 793 µM) in data set [5]. Also, in data set [6], the “Karl Fischer moisture content” value turned out to be 0.1 wt %.
